Laboratory results: article PMC5234776, “Study of the Antimicrobial Activity of Tilapia Piscidin 3 (TP3) and TP4 and Their Effects on Immune Functions in Hybrid Tilapia (Oreochromis spp.)” (PLoS ONE, 2017)
Peptide text beside a SMILES is read from it.

Columns and labels:
V. vulnificus [1] = test: In vivo bactericidal activity, bacterial load in tilapia liver; parameters: species or system tilapia (Oreochromis spp.); conditions: for V. vulnificus bacterial load in the liver versus infected untreated fish: 20, 30 or 40 μg/fish, co-, pre- or post-treatment, in words; for bacterial clearance of V. vulnificus from the tilapia: after 48 hours
Experimental: Three groups of fish were used for these experiments. The first group was first injected with V. vulnificus (2×10^5 CFU/fish) followed by TP3 or TP4 peptides (20, 30, or 40 μg/fish) 0.5 hours later. A second group was first injected with TP3 or TP4 peptides (20, 30, or 40 μg/fish) and then, 0.5 hours later, with V. vulnificus (2×10^5 CFU/fish). A third group of tilapia was simultaneously injected (co-treated) with V. vulnificus (2×10^5 CFU/fish) and TP3 or TP4 peptides (20, 30, or 40 μg/fish). Liver samples were obtained from each group of tilapia at 3, 6, 9, 12, 24, and 48 hours after the final treatment and the tissues were homogenized in TSB medium before being spread onto TCBS plates. We incubated the plates at 28°C for 12 hours and then counted the number of bacterial colonies.

V. vulnificus [2] = test: Time-kill analysis; format: cell-based, Vibrio vulnificus; conditions: for eradication of bacteria: 60 minutes of exposure at 2×MIC, in words; for time after which V. vulnificus CFUs recovered: peptide at 1xMIC
Experimental: We determined the MICs of TP3, TP4, kanamycin, and ampicillin against V. vulnificus using a broth microdilution method in accordance with NCCLS guidelines. To measure the killing efficiencies of TP3 and TP4 against V. vulnificus, we prepared TP3 or TP4 solutions at MIC concentrations of 0.5×, 1×, and 2× and these solutions with equal volumes of V. vulnificus (1×10^6 CFU/ml) to each well of a 96-well plate. The plates were incubated at 28°C for 0, 60, 120, 180, 360, 540, 720, or 1440 minutes, and after the incubation period, 50 μL of each bacterial solution were plated on a TCBS plate to obtain viable cell counts. Broth grown in the absence of peptides was used as a negative control. The results were determined using triplicate independent experiments.

V. vulnificus [3] = test: Tilapia survival, re-challenge of co-treatment survivors with V. vulnificus; format: in vivo, tilapia (Oreochromis spp.); conditions: survivors of 20 μg/fish co-treatment, followed seven days
From the text: We obtained tilapia (Oreochromis spp.) from a commercial aquaculture company. The fish body lengths were 4.0±0.6 cm, and body weights were 3.1±0.3 g. The tilapia were maintained in a 2000 liter indoor aquarium at the Marine Research Station, Ilan, Taiwan. To study the efficacy with which TP3 and TP4 protect tilapia against V. vulnificus, we injected the bacteria into the abdominal cavities (peritoneum) of the tilapia using a syringe (29 Gx1/2, Terumo Medical, Elkton, MD, USA); control tilapia were injected with PBS-buffered saline. For the first trial in each group, we used 15 tilapia: (a) group 1 was injected with V. vulnificus (2×10^5 CFU/fish) only; (b) group 2 was injected with PBS only; and (c) group 3 was injected with bacterial cells (2×10^5 CFU/fish) combined with a mixture containing both TP3 and TP4 peptides (at 0.1, 1, 10, or 20 μg/fish) that had been incubated for 60 minutes at 28°C. Next, at 168 hours after the first injection, the tilapia that survived the first co-treatment were again injected with V. vulnificus (2×10^5 CFU/fish). For this second challenge, we chose tilapia with similar body weights and ages that had not been previously treated with V. vulnificus, TP3 or TP4 for the V. vulnificus-only group (control group), and we recorded the survival rate over seven days. For the third trial, each group contained 15 tilapia, each of which was injected with 20, 30, or 40 μg of TP3 or TP4 followed by V. vulnificus (2×10^5 CFU/fish) after 0.5, 1, or 2 hours. The survival rate was recorded after seven days. For the fourth trial, each group contained 15 tilapia, each of which was first injected with V. vulnificus (2×10^5 CFU/fish) and then with 20, 30, or 40 μg of TP3 or TP4 after 0.5, 1, or 2 hours; the survival rate was recorded over seven days. Each experimental group consisted of 15 fish per treatment and three replicates (triplicate groups of 15 fish per treatment). We performed multiple group comparisons by analysis of variance (ANOVA) using SPSS software, and pairwise comparisons of groups were performed using a t-test. Significant differences were indicated as *P<0.05 and **P<0.01.
The antimicrobial activities of TP3 and TP4 peptides were analyzed in tilapia infected with lethal amounts of bacteria. Different amounts of V. vulnificus were injected into the abdominal cavities of the fish, and survival rates were recorded as cumulative percentages (S1 Fig). To determine whether TP3 and TP4 had any toxic effects on the tilapia, we injected different doses of TP3 and TP4 (0.1, 1, 10, 20, 30, 40, or 50 μg/fish) into the abdominal cavity and recorded the cumulative survival percentage of the fish (S2 Fig). We also co-treated tilapia with different doses (0.1, 1, 10, 20 μg/fish) of TP3 or TP4 combined with 2x10^4 CFU of V. vulnificus to evaluate tilapia survival following treatment. […] After 14, 21, or 28 days following the first co-treatment with TP3, the tilapia that survived in the 20 μg/fish TP3 experimental group were injected with a second dose of 2x10^4 CFU of V. vulnificus, and the survival rates were measured for another seven days. […] In the co-treatment experiments, at 14, 21, or 28 days after the first co-treatment with TP4, the surviving tilapia in the 20 μg/fish TP4 experimental group received a second injection of 2x10^4 CFU of V. vulnificus, and the survival rates were measured for another seven days.

SMILES	V. vulnificus bacterial load in the liver versus infected untreated fish (V. vulnificus [1])	bacterial clearance of V. vulnificus from the tilapia (V. vulnificus [1]) [%]	eradication of bacteria (V. vulnificus [2])	time after which V. vulnificus CFUs recovered (V. vulnificus [2])	survival rate after second injection of V. vulnificus (V. vulnificus [3]; re-challenged after 14 days) [%]	survival rate after second injection of V. vulnificus (V. vulnificus [3]; re-challenged after 21 days) [%]	survival rate after second injection of V. vulnificus (V. vulnificus [3]; re-challenged after 28 days) [%]
CC[C@H](C)[C@H](NC(=O)[C@H](CC(C)C)NC(=O)[C@H](CO)NC(=O)[C@H](Cc1c[nH]cn1)NC(=O)[C@@H](NC(=O)[C@H](Cc1c[nH]cn1)NC(=O)[C@H](CCCCN)NC(=O)CNC(=O)[C@@H](NC(=O)[C@H](CO)NC(=O)[C@H](Cc1ccccc1)NC(=O)[C@H](CC(C)C)NC(=O)CNC(=O)CNC(=O)[C@@H](NC(=O)[C@@H](NC(=O)[C@H](Cc1c[nH]cn1)NC(=O)[C@H](Cc1c[nH]cn1)NC(=O)[C@@H](NC(=O)[C@@H](N)Cc1ccccc1)[C@@H](C)CC)[C@@H](C)CC)[C@@H](C)CC)C(C)C)[C@@H](C)CC)C(=O)N[C@@H](Cc1c[nH]cn1)C(=O)NCC(=O)N[C@@H](Cc1c[nH]cn1)C(=O)O [TP3, tilapia piscidin 3] (H-FIHHIIGGLFSVGKHIHSLIHGH-OH)	significantly lower	100	completely eradicated	approximately 6 hours	17.8	26.7	35.6
CC[C@H](C)[C@H](NC(=O)[C@H](C)NC(=O)[C@H](CCCCN)NC(=O)CNC(=O)[C@H](C)NC(=O)[C@H](CO)NC(=O)[C@H](Cc1ccccc1)NC(=O)[C@H](CC(C)C)NC(=O)CNC(=O)CNC(=O)[C@@H](NC(=O)[C@@H](NC(=O)[C@H](Cc1c[nH]cn1)NC(=O)[C@H](Cc1c[nH]cn1)NC(=O)[C@@H](NC(=O)[C@@H](N)Cc1ccccc1)[C@@H](C)CC)[C@@H](C)CC)[C@@H](C)CC)C(=O)N[C@@H](Cc1c[nH]cn1)C(=O)N[C@@H](CCCNC(=N)N)C(=O)N[C@@H](CC(C)C)C(=O)N[C@H](C(=O)N[C@@H](CCCNC(=N)N)C(=O)N[C@@H](CCCNC(=N)N)C(=O)N[C@@H](CCCNC(=N)N)C(=O)N[C@@H](CCCNC(=N)N)C(=O)N[C@@H](CCCNC(=N)N)C(=O)O)[C@@H](C)CC [TP4, tilapia piscidin 4] (H-FIHHIIGGLFSAGKAIHRLIRRRRR-OH)	significantly reduced	100	completely eradicated	~9 h	17.8	37.8	42.2
